Two molecules from ChEMBL document CHEMBL2074438, “Influence of omeprazole on multidrug resistance protein 3 expression in human liver” (J Pharmacol Exp Ther, 2003) can be followed below.

In assay [1] the target is Multidrug resistance associated protein (Homo sapiens) (UniProt Q96QA9). The assay is described as follows: TP_TRANSPORTER: Western blot, HepG2 cells. The class given is functional, cell-based. A general note: In western blotting, separated proteins are transferred to a membrane and probed.
Multidrug resistance associated protein (Homo sapiens), sequence (Q96QA9 as listed by the source): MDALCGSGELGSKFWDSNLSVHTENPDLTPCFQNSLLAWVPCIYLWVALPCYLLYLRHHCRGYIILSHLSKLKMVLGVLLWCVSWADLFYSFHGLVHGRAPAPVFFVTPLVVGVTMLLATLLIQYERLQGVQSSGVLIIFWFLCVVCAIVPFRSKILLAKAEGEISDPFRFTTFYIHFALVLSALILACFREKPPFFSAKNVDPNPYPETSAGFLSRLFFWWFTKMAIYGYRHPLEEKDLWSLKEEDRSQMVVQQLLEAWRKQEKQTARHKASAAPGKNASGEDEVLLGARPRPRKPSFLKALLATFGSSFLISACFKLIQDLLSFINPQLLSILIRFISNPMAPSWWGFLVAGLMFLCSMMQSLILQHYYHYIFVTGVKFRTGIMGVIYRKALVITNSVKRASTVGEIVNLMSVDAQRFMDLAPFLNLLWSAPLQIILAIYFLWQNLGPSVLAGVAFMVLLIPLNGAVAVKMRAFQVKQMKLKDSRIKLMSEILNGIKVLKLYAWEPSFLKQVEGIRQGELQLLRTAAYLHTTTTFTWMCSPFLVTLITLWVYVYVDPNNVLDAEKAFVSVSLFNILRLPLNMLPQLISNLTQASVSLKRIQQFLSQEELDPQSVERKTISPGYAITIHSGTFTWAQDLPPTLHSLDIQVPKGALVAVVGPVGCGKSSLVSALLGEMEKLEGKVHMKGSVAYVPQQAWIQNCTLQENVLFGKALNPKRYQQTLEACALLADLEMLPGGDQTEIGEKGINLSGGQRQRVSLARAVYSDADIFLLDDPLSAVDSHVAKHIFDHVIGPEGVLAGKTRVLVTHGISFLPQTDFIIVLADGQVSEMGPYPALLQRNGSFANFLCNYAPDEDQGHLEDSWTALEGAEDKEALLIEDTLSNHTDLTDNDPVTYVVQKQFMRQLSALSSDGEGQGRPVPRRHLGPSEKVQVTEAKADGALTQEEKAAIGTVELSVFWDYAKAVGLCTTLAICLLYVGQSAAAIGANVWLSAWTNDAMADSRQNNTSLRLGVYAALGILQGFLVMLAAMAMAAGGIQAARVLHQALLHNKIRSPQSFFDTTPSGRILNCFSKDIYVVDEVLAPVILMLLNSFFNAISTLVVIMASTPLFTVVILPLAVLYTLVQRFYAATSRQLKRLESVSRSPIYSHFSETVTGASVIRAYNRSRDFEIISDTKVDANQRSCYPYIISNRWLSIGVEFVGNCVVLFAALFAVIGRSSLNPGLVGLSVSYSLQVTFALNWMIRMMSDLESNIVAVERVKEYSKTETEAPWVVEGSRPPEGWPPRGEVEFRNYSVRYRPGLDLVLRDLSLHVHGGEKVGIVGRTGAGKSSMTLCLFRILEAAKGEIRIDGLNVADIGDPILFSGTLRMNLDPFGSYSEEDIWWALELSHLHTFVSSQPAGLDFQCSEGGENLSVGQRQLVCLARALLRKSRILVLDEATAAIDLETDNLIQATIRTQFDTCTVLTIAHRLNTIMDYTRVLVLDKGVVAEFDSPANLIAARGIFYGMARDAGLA
The target is the same in assay [2]. As to the kind of experiment: TP_TRANSPORTER: RT-PCR in HepG2 cells. The class given is functional, cell-based.

As for `O=c1cc(-c2ccccc2)oc2ccc3ccccc3c12`, the Activity result in assay [1] and in assay [2] was “inducer []” each time.
For the molecule `COc1ccc2[nH]c([S+]([O-])Cc3ncc(C)c(OC)c3C)nc2c1` (centres undefined), the Activity entry in assay [1] and in assay [2] was “inducer []” throughout.
